Measurements published in patent US10525044B2, “Treatment for chemotherapy-induced peripheral neuropathy” (priority 2013, dated 2020).
“Also recorded” adds a separate entry of the source.

Legend:
[1] = tested on: human lung cancer cell line H460; test: MTS assay in H460 cancer cells; assay type: cell-based; conditions: each agent alone, 3 days: MTX 100 μM, 5-FU 25 μM, CDDP 3.5 μM, PAN-811 10 μM
Experimental: (§1) Cancer Cell Culture. The mouse liver cancer cell line BNLT3 (gift of Dr. Jack Wands, Brown University) and the human lung cancer cell line H460 (ATCC) were seeded into 96-well plates at a density of 4,000 cells/well and cultured at 37° C., 5% CO2, in DMEM (11965, Gibco) supplemented with 10% fetal bovine serum, 20 mM HEPES, 1 mM sodium pyruvate, and […] gentamycin (all reagents came from Gibco).
(§2) Cell Insults and Treatments. Determination of concentration for each anticancer drug in our experiments was based on its reported concentration in human cerebral spinal fluid (CSF) in chemotherapy, literature report of its neurotoxicity in culture, and our preliminary in vitro experimental data. At 13 d.i.v., the neuronal cell cultures were insulted with 100 μM of MTX (M9929, Sigma), 25 μM of 5-FU (F6627, Sigma), or 3.5 μM of CDDP (sc-200896, Santa Cruz) for 3 days in absence or presence of PAN 811.Cl.H2O. For ROS examination, the neurons were insulted with both 100 μM of MTX and 25 μM of 5-FU by 15 d.i.v. PAN-811.Cl.H2O was added to cultures to final concentrations of 1.25, 2.5, 5, and 10 μM at the same time as addition of the anticancer drugs. For cancer cell lines, the cells were insulted by the second day of cell seeding with the same concentration of MTX, 5-FU, or CDDP as used in neuronal culture in the absence or presence of 10 μM PAN-811.Cl.H2O for another 3 days.
(§3) Quantitative Assays and Morphological Assessment. Cell membrane integrity and mitochondrial function of either neurons or cancer cells were measured with LDH and 3-(4,5-dimethylthiazol-2-yl)-5-(3-carboxymethoxyphenyl)-2-(4-sulfophenyl)-2H-tetrazolium [MTS] analyses, respectively. The latter has been used to quantify cell survival. For the LDH assay, a mixture of a 35 μL aliquot of culture supernatant and 17.5 μL of Mixed Substrate, Enzyme and Dye Solutions (Sigma) was incubated at room temperature (RT) for 30 minutes. For the MTS assay, 10 μL of MTS reagent (Promega) was added to a culture well containing neurons in 50 μL of medium. The preparations were incubated at 37° C. for 2 hours. The preparations for both assays were then spectrophotometrically measured at 490 nm using a 96-well plate reader (Mode 550, Bio-Rad). Neuronal cell death was morphologically determined based on the integrity of the cell soma and continuity of neuronal processes. The change in number of cancer cells was judged directly by cell density. Cells were photographed under an inverted phase contrast microscope (IX 70, Olympus) using 10× or 20× objective.
(§4) Data Analysis. Data were generated from 4-6 replicate wells, expressed as mean±standard deviation (SD), and statistically evaluated at a significance level of 1% with one factor ANOVA or Student's t-test by using software VASSARSTATS (http://vassarstats.net/) followed by the Tukey HSD test. Figure symbols are as follows: #, P<0.05, and ##, P<0.01, compared with control; *, P<0.05, and **, P<0.01, compared with the insulted group; §§, P<0.01, compared with PAN-811 treated group by Student's t-test.

[2] = tested on: mouse liver cancer cell line BNLT3; test: Cell density of BNLT3 cells (phase contrast); assay type: cell-based; conditions: each agent alone, 3 days: MTX 100 μM, 5-FU 25 μM, CDDP 3.5 μM, PAN-811 10 μM
Experimental: as §1, §2, §3

[3] = tested on: mixed cortical and striatal neurons; test: Morphological assessment of neuronal cell death; assay type: cell-based, Sprague-Dawley rats; conditions: MTX 100 μM, 5-FU 25 μM, CDDP 3.5 μM; for visible cell damage: neurons in 25% AO, 3 days; for neuronal cell death / loss of neurons (morphology): AO reduced to 12.5% for 5 hours at 16 d.i.v.
Experimental: (§5) Neuronal Cell Culture. Mixed cortical and striatal neurons fromembryonic day 17 male Sprague-Dawley rats (tissue obtained from NIH) were seeded into poly-D-lysine coated 96-well plates at density of 50,000 cells/well and initially cultured at 37° C., 5% CO2, in neurobasal medium (NB) with B27 supplement (Invitrogen) containing full strength of AOs to obtain highly enriched (95%) neurons. Since AOs, including vitamin E, vitamin E acetate, superoxide dismutase (SOD), catalase (CAT), and GSH, are additives to culture medium, reduction of AO concentration in culture medium provides an approach to determine the level of OS involvement in a neurotoxic process. In our study, the culture medium was replaced at a 50% ratio with NB plus B27 minus AOs twice at days 7 and 9 to set AO concentrations as 50% and 25%, respectively. At 16 days in vitro (d.i.v.), a fraction of the culture medium was harvested for lactate dehydrogenase (LDH) assay, and then AO concentration was reduced to 12.5% and cultured for a further 5 hours prior to ending the experiment.
as §2, §3

[4] = tested on: mixed cortical and striatal neurons; test: MTS assay (cell viability) in neuronal cell culture; assay type: cell-based; conditions: MTX 100 μM, 5-FU 25 μM, CDDP 3.5 μM; for reduction of MTS reading / effect on MTS reading (in words): neurons in 12.5% AO; for effect on MTS reading (in words): FIG. 2(c); for change in MTS level: neurons in 25% AO, 3 days, data not shown
Experimental: as §5, §2, §3, §4

[5] = tested on: mouse liver cancer cell line BNLT3; test: MTS assay in BNLT3 cancer cells; assay type: cell-based; conditions: each agent alone, 3 days: MTX 100 μM, 5-FU 25 μM, CDDP 3.5 μM, PAN-811 10 μM
Experimental: as §1, §2, §3, §4

[6] = tested on: human lung cancer cell line H460; test: LDH assay (membrane integrity) in H460 cancer cells; assay type: cell-based; conditions: each agent alone, 3 days: MTX 100 μM, 5-FU 25 μM, CDDP 3.5 μM, PAN-811 10 μM
Experimental: as §1
as §2, with “[…] […]” for “At 13 d.i.v., the neuronal cell cultures were insulted with 100 μM of MTX (M9929, Sigma), 25 μM of 5-FU (F6627, Sigma), or 3.5 μM of CDDP (sc-200896, Santa Cruz) for 3 days in absence or presence of PAN 811.Cl.H2O. For ROS examination, the neurons were insulted with both 100 μM of MTX and 25 μM of 5-FU by 15 d.i.v.”
as §3, §4

[7] = tested on: mixed cortical and striatal neurons; test: LDH assay (cell membrane integrity) in neuronal cell culture; assay type: cell-based; conditions: MTX 100 μM, 5-FU 25 μM, CDDP 3.5 μM; for LDH increase in culture supernatant (cell membrane leakage): neurons in 25% AO; for LDH increase in culture supernatant (cell membrane leakage) / morphological changes, LDH release, or MTS reduction: 3 days; for morphological changes, LDH release, or MTS reduction: neurons in 100% or 50% AOs, data not shown; for increase in LDH reading: neurons, FIG. 2(b)
Experimental: as §5, §2, §3, §4

[8] = tested on: human lung cancer cell line H460; test: Cell density of H460 cells (phase contrast); assay type: cell-based; conditions: each agent alone, 3 days: MTX 100 μM, 5-FU 25 μM, CDDP 3.5 μM, PAN-811 10 μM
Experimental: as §1, §2, §3

[9] = tested on: TRPA1-dependent hypersensitivity; conditions: short-term systemic treatment before the cytotoxic drug (bortezomib or oxaliplatin); cited from earlier work
[10] = tested on: oxaliplatin-induced behavioral alterations; conditions: in vivo; cited from earlier work

SMILES	reduction of MTS reading [1] [%]	cell density / cancer cell number [2]	visible cell damage [3]	neuronal cell death / loss of neurons (morphology) [3]	reduction of MTS reading [4] [%]	effect on MTS reading (in words) [4]	change in MTS level [4]	reduction of MTS reading [5] [%]	increase in LDH reading in culture supernatant [6] [%]	LDH increase in culture supernatant (cell membrane leakage) [7]	morphological changes, LDH release, or MTS reduction [7]	increase in LDH reading [7]	cell density [8]	prevention of hypersensitivity [9]	antineuropathic effect on oxaliplatin-induced behavioral alterations [10]
O=c1[nH]cc(F)c(=O)[nH]1 [5-FU, fluorouracil]	57	significantly reduced the cell density	no cell damage was visible	extensive neuronal cell death; also recorded: robust loss of neurons	27	significant reduction in MTS readings	no change in MTS level was detectable	84	124	significant LDH increase	neither MTX at 100 μM, 5-FU at 25 μM, nor CDDP at 3.5 μM caused morphological changes, LDH release, or MTS reduction	significant increases in LDH reading	robustly decreased the cell density		
[NH2][Pt]([NH2])([Cl])[Cl] [CDDP, cisplatin]	22	caused a decrease in the cell density	no cell damage was visible	extensive neuronal cell death; also recorded: robust loss of neurons	66	significant reduction in MTS readings	no change in MTS level was detectable	44	71	significant LDH increase	neither MTX at 100 μM, 5-FU at 25 μM, nor CDDP at 3.5 μM caused morphological changes, LDH release, or MTS reduction	significant increases in LDH reading	greatly decreased the cell density		
CC(C)c1ccc(NC(=O)Cn2cnc3c2c(=O)n(C)c(=O)n3C)cc1 [HC-030031]														completely prevent hypersensitivity	
CN(Cc1cnc2nc(N)nc(N)c2n1)c1ccc(C(=O)N[C@@H](CCC(=O)O)C(=O)O)cc1 [MTX, methotrexate]	67	severely reduced the cancer cell number	no cell damage was visible	did not result in significant loss of cell number		did not elicit significant MTS reduction; also recorded: did not significantly affect the MTS reading	no change in MTS level was detectable	85	95	significant LDH increase	neither MTX at 100 μM, 5-FU at 25 μM, nor CDDP at 3.5 μM caused morphological changes, LDH release, or MTS reduction	significant increases in LDH reading	robustly decreased the cell density		
O=C(O)CCCCC1CCSS1 (stereo not drawn) [α-lipoic acid]														completely prevent hypersensitivity	
Cc1c(C)c2c(c(C)c1O)CC[C@@](C)(CCC[C@H](C)CCC[C@H](C)CCCC(C)C)O2 [α-tocopherol]															about 50%
